Measured values taken from the supplement of paper PMC8882468.

Key:
Assay in all cases: CTG-3D luminescence at 96 h relative to day-0 seeding control (ratio to day 0); higher = more growth / less cytotoxicity; PDxO 3D drug screen, 96 h, CTG-3D normalised to day-0 seeding control.
[1] = tested on: HCI-017.E2 (organoid from an ER-positive breast cancer xenograft)
[2] = tested on: HCI-023 (organoid from a triple-negative breast cancer xenograft)
[3] = tested on: HCI-027 (organoid from a triple-negative breast cancer xenograft)
[4] = tested on: HCI-008 (organoid from a HER2-enriched breast cancer xenograft)
[5] = tested on: MDA-MB-231
[6] = tested on: HCI-010 (organoid from a breast cancer xenograft)
[7] = tested on: HCI-015 (organoid from a triple-negative breast cancer xenograft)

C=CC(=O)N1CCC[C@@H](n2nc(-c3ccc(Oc4ccccc4)cc3)c3c(N)ncnc32)C1 [ibrutinib]
CTG-3D luminescence at 96 h
Settings	12.5 pM	0.00025 µM	0.005 µM	0.1 µM	1 µM	10 µM	100 µM	625 fM
[1]	1.84	2.24	2.27	2.21	2.29	1.49	0.00316	2.16
[5]	4.49	4.45	4.49	4.64	4.82	4.66	-0.0103	4.55

CTG-3D luminescence at 96 h
Settings	12.5 pM	0.00025 µM	0.005 µM	0.1 µM	1 µM	10 µM	100 µM	625 fM
[1], days in culture: 85	2.54	2.97	2.31	2.54	1.88	1.6	0.0338	2.31
[2], days in culture: 111	1.24	1.25	1.32	1.2	1.03	1.02	-0.00294	1.29
[2], days in culture: 128	1.42	1.43	1.55	1.48	1.26	1.03	-0.00478	1.54
[3], days in culture: 176	1.63	1.35	2.52	1.59	1.09	0.54	0.00595	1.73
[3], days in culture: 194	1.68	1.52	1.52	1.6	1.98	1.69	0.00765	1.76
[3], days in culture: 201	2.12	1.48	1.94	1.93	1.49	1.41	0.00768	2.11
[4], days in culture: 228	1.59	1.84	1.21	1.18	1.26	1	-0.0059	1.66
[4], days in culture: 244	1.25	1.71	1.76	1.65	1.52	1.3	-0.0038	1.98
[6], days in culture: 52	2.16	2.15	2.34	2.35	2.08	1.47	-0.00732	2.5
[6], days in culture: 65	1.67	1.66	1.79	1.73	1.79	0.888	-0.00863	1.69
[6], days in culture: 103	3.5	3.57	3.54	3.41	3.26	1.51	-0.0156	3.23
[7], days in culture: 172	2.54	1.92	2.32	1.06	1.37	1.14	7.09e-05	2.36
[7], days in culture: 191	1.91	1.22	1.64	1.03	0.827	0.68	0.00148	1.52
[7], days in culture: 218	1.88	1.37	1.76	1.6	1.4	1.33	0.00244	1.81

CN(Cc1cnc2nc(N)nc(N)c2n1)c1ccc(C(=O)N[C@@H](CCC(=O)O)C(=O)O)cc1 [methotrexate]
CTG-3D luminescence at 96 h
Settings	12.5 pM	0.00025 µM	0.005 µM	0.1 µM	1 µM	10 µM	100 µM	625 fM
[1]	2.07	2.19	2.14	2	2.22	2.19	2.15	2.05
[5]	4.34	4.29	4.44	4.37	2.63	2.29	2.66	4.36

CTG-3D luminescence at 96 h
Settings	12.5 pM	0.00025 µM	0.005 µM	0.1 µM	1 µM	10 µM	100 µM	625 fM
[1], days in culture: 85	2.97	2.49	2.7	2.26	2.43	2.05	2.13	2.34
[2], days in culture: 111	1.59	1.42	1.18	1.07	0.83	0.957	0.655	1.51
[2], days in culture: 128	1.68	1.51	1.5	1.84	1.37	1.77	1.22	1.62
[3], days in culture: 176	2.07	1.47	2.43	1.51	1.97	1.55	1.68	1.28
[3], days in culture: 194	1.69	1.38	1.57	1.17	1.04	1.07	0.572	1.44
[3], days in culture: 201	1.69	1.66	2.26	1.14	0.939	0.886	0.445	1.25
[4], days in culture: 228	1.82	1.9	1.53	1.98	1.97	1.82	1.2	2.01
[4], days in culture: 244	1.4	1.83	1.93	2.13	1.59	1.93	1.66	2.31
[6], days in culture: 52	2.12	2.41	2.51	2.48	2.58	2.52	2.52	2.58
[6], days in culture: 65	1.6	1.77	1.79	1.86	1.86	1.72	1.46	1.8
[6], days in culture: 103	3.42	3.7	4.03	2.39	2.36	2.1	1.84	3.19
[7], days in culture: 172	2.51	2.28	2.36	1.31	1.55	1.13	1.06	2.55
[7], days in culture: 191	1.94	1.41	1.62	1.1	1.23	0.977	0.939	1.36
[7], days in culture: 218	1.75	1.57	1.63	1.69	1.48	1.63	1.21	1.79
